Laboratory results reported in paper PMC12073635, “Synthesis of Tricyclic and Tetracyclic Lactone Derivatives of Thieno[2,3-b]pyrazine or Thieno[2,3-b]quinoline: Preliminary Antitumor and Antiparasitic Activity Evaluation” (Molecules, 2025).

How the values were obtained:
[1] = system: CaCo-2 (colorectal adenocarcinoma) cells; assay: SRB cell growth inhibition assay, CaCo-2; format: cell-based, human; details: Homo sapiens, Caco-2, 72 h, mean ± standard deviation
Description: (§1) The antitumor potential of the Sonogashira coupling products 2, tricyclic lactones 3 and 5, and tetracyclic lactones 7 was evaluated using the sulforhodamine B (SRB) assay against five human tumor cell lines: colorectal adenocarcinoma (CaCo-2), breast adenocarcinoma (MCF-7), gastric adenocarcinoma (AGS), cervical carcinoma (HeLa), and non-small cell lung cancer (NCI-H460). A primary pig liver cell culture (PLP2) was used to assess the toxicity of compounds.
(§2) The human tumor cell lines used were CaCo-2 (colorectal adenocarcinoma), MCF-7 (breast adenocarcinoma), AGS (gastric adenocarcinoma), HeLa (cervical carcinoma), NCI-H460 (lung carcinoma). Non-tumor cell lines were also tested: PLP2 (primary pig liver culture). All the cell lines were maintained in RPMI-1640 medium supplemented with 10% fetal bovine serum, glutamine (2 mM), penicillin (100 U/mL), and streptomycin ([…]), with the exception of PLP2, which was maintained in DMEM medium supplemented with fetal bovine serum (10%), glutamine and antibiotics. The culture flasks were incubated at 37 °C and with 5% CO2, under a humid atmosphere. The cells were used only when they had 70 to 80% confluence. A known mass of each compound was dissolved in DMSO/H2O (1:1, 1 mL), in order to obtain the stock solutions with a concentration of 1 mM. […] Each compound concentration (10 μL) was incubated with the cell suspension (190 μL) of the cell lines tested in 96-well microplates for 72 h. The microplates were incubated at 37 °C and with 5% CO2 in a humid atmosphere after checking the adherence of the cells. All cell lines were tested at a concentration of 10,000 cells/well. After the incubation period, the cells were treated: TCA (10% w/v; 100 μL) was previously cooled, and plates were incubated for 1 h at 4 °C, washed with water, and, after drying, a SRB solution (0.057%, m/v; 100 μL) was added and left to stand at room temperature for 30 min. To remove non-adhered SRB, plates were washed three times with a solution of acetic acid (1% v/v) and placed to dry. Finally, an adhered SRB was solubilized with Tris (10 mM, 200 μL) and the absorbance at a wavelength of 540 nm was read in the Biotek ELX800 microplate reader. The results obtained by the SRB assay were expressed regarding the concentration compounds that can inhibit cell growth by 50%—GI50. Doxorubicin was used as a positive control.

[2] = system: NCI-H460 (non-small cell lung cancer) cells; assay: SRB cell growth inhibition assay, NCI-H460; format: cell-based; details: Homo sapiens, 72 h, mean ± standard deviation
Description: as §1, §2

[3] = system: HeLa (cervical carcinoma) cells; assay: SRB cell growth inhibition assay, HeLa; format: cell-based; details: Homo sapiens, 72 h, mean ± standard deviation
Description: as §1, §2

[4] = SRB assay, toxicity in non-tumor PLP2 cells; format: cell-based, pig; details: PLP2 primary pig liver cells (non-tumor); non-tumor primary pig liver cells, SRB assay, 72 h, mean ± standard deviation
Description: as §1, §2

[5] = system: MCF-7 (breast adenocarcinoma) cells; assay: SRB cell growth inhibition assay, MCF-7; format: cell-based, human; details: Homo sapiens, MCF7, 72 h, mean ± standard deviation
Description: as §1, §2

[6] = system: AGS (gastric adenocarcinoma) cells; assay: SRB cell growth inhibition assay, AGS; format: cell-based; details: Homo sapiens, 72 h, mean ± standard deviation
Description: as §1, §2

[7] = MTT cytotoxicity in THP-1-derived macrophages; format: cell-based, human; details: human, THP-1-derived macrophages (PMA-differentiated); MTT, 72 h, tested 100 to 12.5 μM; read-out: CC50 Interval in THP-1-Derived Macrophages
Description: Human leukemia cell line, THP-1 (ATCC® TIB-202™, Manassas, VA, USA) was cultured in RPMI-1640 medium supplemented with 10% heat-inactivated Fetal Bovine Serum (FBS), 2 mM L-glutamine, 100 UI/mL penicillin/streptomycin, 20 mM HEPES. The cell line was maintained in a humidified incubator at 37 °C and 5% CO2 by subculture every three days in 20 mL of media at a concentration of 1 × 10^5/mL in a T75 flask. All cell culture reagents were purchased from Lonza-Bioscience (Morrisville, NC, USA).
The cytotoxicity effect of compounds on THP-1-derived macrophages was assessed by the colorimetric MTT assay (3-(4,5-dimethylthiazol-2-yl)-2,5-diphenyl tetrazolium bromide). Briefly, THP-1 cells were suspended in RPMI complete medium at a density of 1 × 10^6 cells/mL and 100 μL/well were seeded in a 96-well plate and were differentiated into macrophages by addition of 40 ng/mL of phorbol-myristate 13-acetate (PMA, Sigma, Saint Louis, MI, USA) for 24 h followed by replacement with fresh medium for more 24 h. Subsequently, cells were incubated with 100 μL of compounds ranging from 100 to 12.5 μM after dilution in the RPMI complete medium. Each condition was carried out in quadruplicate. After 72 h of incubation at 37 °C 5% CO2, the medium was removed and 200 μL of 0.5 mg/mL MTT solution diluted in RPMI was added. Plates were incubated for an additional 4 h. Then 160 μL of media was removed and the same volume of 2-propanol was added. Absorbance was read at 570 nm using a Synergy 2 Multi-Mode Reader (Biotek, Winooski, VT, USA). Cytotoxicity was evaluated by the determination of the CC50 value (drug concentration that reduced the percentage of viable cells in 50%) and calculated by non-linear regression analysis using GraphPad Prism version 8.1.1 for Windows (GraphPad Software, San Diego, CA, USA). The results represent the average of at least three independent experiments. For each compound, the Selectivity Index (SI) was calculated as the ratio between cytotoxicity in THP-1 (CC50, 72 h) and activity against parasites (IC50, 72 h).

[8] = system: T. brucei Lister 427 bloodstream forms; assay: Resazurin-based anti-T. brucei assay; format: cell-based, Trypanosoma brucei; details: Trypanosoma brucei, 72 h, dose-response
Description: (§3) The antiparasitic activity of compounds 2c–g, 3a, 5a and 7 was evaluated at a single concentration of 20 μM, against Trypanosoma brucei (T. brucei) and Leishmania infantum (L. infantum) promastigotes. The results are shown in Table 9 together with the cytotoxicity data (CC50) in THP-1–derived macrophages cells.
T. brucei Lister 427 bloodstream forms were grown in a humidified incubator at 37 °C, 5% CO2 in complete HMI-9 medium 1 supplemented with 10% heat-inactivated Fetal Bovine Serum (FBS) and 100 UI/mL penicillin/streptomycin. Parasites maintenance was performed in T25 ventilated flasks by subpassage at a concentration of 1 × 10^4/mL every 2 days on T25 ventilated flasks.
The efficacy of compounds against T. brucei bloodstream forms was evaluated using a modified resazurin-based assay previously described in the literature. Parasites were added to 100 µL of serial dilutions of compounds in supplemented complete medium at a cell density of 5 × 10^3/mL for. As a quality control, a dose–response curve for the antitrypanosomal pentamidine was included in all the assays. The final volume of the assay is 200 µL/well. Each condition was carried out in duplicate. Following 72 h incubation at the specific conditions for T. brucei, 20 µL of a 0.5 mM resazurin solution was added and plates were incubated for a further 4 h under the same conditions. Fluorescence was measured at 544 nm and 590 nm excitation and emission wavelength, respectively, using a Synergy 2 Multi-Mode Reader (Biotek, Winooski, VT, USA). Results were shown as % of parasite growth inhibition compared to control (untreated parasites) and represent the average of at least three independent experiments. The effect was evaluated by the determination of the IC50 value (concentration required to inhibit growth in 50%) and calculated by non-linear regression curves using GraphPad Prism version 8.1.1 for Windows (GraphPad Software, San Diego CA, USA).

[9] = system: L. infantum MHOM/MA/67/ITMAP-263 promastigotes; assay: Resazurin-based assay against L. infantum promastigotes; format: cell-based, Leishmania infantum; details: Leishmania infantum, 72 h, dose-response
Description: as §3
L. infantum MHOM/MA/67/ITMAP-263 promastigotes forms were grown at 27 °C, in complete RPMI-1640 medium supplemented with 10% heat-inactivated Fetal Bovine Serum (FBS), 2 mM L-glutamine, 100 UI/mL penicillin/streptomycin, 20 mM HEPES. Parasites maintenance was performed in T25 non-ventilated flasks by subpassage at a concentration of 1 × 10^6/mL every 5 days on T25 non-ventilated flasks.
The compounds’ efficacy against L. infantum promastigotes was evaluated using a resazurin-based assay. Parasites were added to 100 µL of serial dilutions of compounds in supplemented complete medium at a cell density of 5 × 10^5/mL. As a quality control, a dose–response curve to the antileishmanial drug miltefosine was included in all the assays. The final volume of the assay was 200 µL/well. Each condition was carried out in duplicate. Following 72 h of incubation at the specific conditions for L. infantum, 20 µL of a 0.5 mM resazurin solution was added, and the plates were incubated for a further 4 h under the same conditions. The methodology to obtain the results was the same described in Section 3.2.2. for T. brucei.

SMILES | GI50 [1] [µM] | GI50 [2] [µM] | GI50 [3] [µM] | GI50 at 72 h [4] [µM] | GI50 [5] [µM] | GI50 [6] [µM] | CC50 at 72 h [7] [µM] | IC50 [8] [nM] | IC50 [9] [nM]
Nc1ccc(-c2cc3c(sc4nccnc43)c(=O)o2)cc1 [Compound 3b, 8-(4-aminophenyl)-6H-pyrano[4′,3′:4,5]thieno[2,3-b]pyrazin-6-one] | 67.5 ± 4.19 | 82.7 ± 7.41 | 58.1 ± 4.29 | > 125 | 75.7 ± 6.48 | 74.3 ± 5.96 |  |  | 
COC(=O)c1sc2nccnc2c1C#Cc1ccc(N)cc1 [Compound 2b, Methyl 7-[(4-aminophenyl)ethynyl]thieno[2,3-b]pyrazine-6-carboxylate] | 59.2 ± 1.76 | 48.6 ± 4.31 | 47.9 ± 3.58 | > 125 | 49.7 ± 2.41 | 51.4 ± 2.87 |  |  | 
O=c1oc(-c2ccc(Br)cc2)c(-c2ccc(Br)cc2)c2c1sc1nc3ccccc3cc12 [Compound 7c, 3,4-Bis(4-bromophenyl)-1H-pyrano[4′,3′:4,5]thieno[2,3-b]quinolin-1-one] | 87.8 ± 8.01 | 108 ± 5.44 | 77.1 ± 1.12 | > 125 | 90.3 ± 4.16 | 104 ± 9.12 | < 12.5 |  | 
O=c1oc(-c2ccccc2)cc2c1sc1nccnc12 [Compound 3a, 8-phenyl-6H-pyrano[4′,3′:4,5]thieno[2,3-b]pyrazin-6-one] | 79.9 ± 3.56 | 36.5 ± 0.69 | 49.7 ± 2.69 | > 125 | 77.5 ± 1.23 | 56.4 ± 3.76 | 50 to 100 |  | 
O=c1oc(-c2ccsc2)cc2c1sc1nccnc12 [Compound 3g, 8-(thiophen-3-yl)-6H-pyrano[4′,3′:4,5]thieno[2,3-b]pyrazin-6-one] | 52.5 ± 1.31 | 44 ± 3.28 | 39 ± 1.78 | > 125 | 48.6 ± 2.15 | 45.3 ± 0.89 |  |  | 
COC(=O)c1sc2nccnc2c1C#Cc1ccccc1 [Compound 2a, Methyl 7-(phenylethynyl)thieno[2,3-b]pyrazine-6-carboxylate] | 70 ± 3.78 | 91.5 ± 9.12 | 68.7 ± 3.05 | > 125 | 94.8 ± 6.43 | 86.8 ± 4.99 |  |  | 
Cc1c(-c2ccccc2)oc(=O)c2sc3nc4ccccc4cc3c12 [Compound 7f, 4-Methyl-3-phenyl-1H-pyrano[4’,3’:4,5]thieno[2,3-b]quinolin-1-one] | 87 ± 3.51 | 92.1 ± 3.89 | 71.5 ± 2.36 | > 125 | 76.4 ± 2.58 | 83.4 ± 6.27 | 12.5 to 50 |  | 
O=c1oc(-c2ccccc2)c(Br)c2c1sc1nccnc12 [Compound 5b, 9-Bromo-8-phenyl-6H-pyrano[4′,3′:4,5]thieno[2,3-b]pyrazin-6-one] | 18.3 ± 0.92 | 48.3 ± 1.08 | 29.1 ± 2.81 | 89.8 ± 1.79 | 45.1 ± 1.74 | 32.8 ± 1.56 |  |  | 
COc1ccc(-c2cc3c(sc4nccnc43)c(=O)o2)cc1 [Compound 3d, 8-(4-Methoxyphenyl)-6H-pyrano[4′,3′:4,5]thieno[2,3-b]pyrazin-6-one] | 90.5 ± 6.47 | 45.3 ± 3.27 | 50.3 ± 4.79 | > 125 | 58.6 ± 1.86 | 56.2 ± 3.02 |  |  | 
O=c1oc(-c2ccc(F)cc2)cc2c1sc1nccnc12 [Compound 3c, 8-(4-fluorophenyl)-6H-pyrano[4′,3′:4,5]thieno[2,3-b]pyrazin-6-one] | 44.1 ± 0.93 | 72.4 ± 6.24 | 48.4 ± 3.19 | > 125 | 56.1 ± 3.56 | 51.5 ± 3.29 |  |  | 
CCCCCCCCCCCCCCCCOP(=O)([O-])OCC[N+](C)(C)C [Milefosine, miltefosine, reference compound] |  |  |  |  |  |  |  | 2900 | 
Cc1ccc(-c2cc3c(sc4nccnc43)c(=O)o2)cc1 [Compound 3e, 8-(p-Tolyl)-6H-pyrano[4′,3′:4,5]thieno[2,3-b]pyrazin-6-one] | 28.8 ± 1.85 | 29.3 ± 1.47 | 38.2 ± 3.29 | 90.5 ± 6.47 | 47.6 ± 4.5 | 43.8 ± 1.76 |  |  | 
COc1cccc2c1C(=O)c1c(O)c3c(c(O)c1C2=O)C[C@@](O)(C(=O)CO)C[C@@H]3O[C@H]1C[C@H](N)[C@H](O)[C@H](C)O1 [doxorubicin, Doxorubicin, reference compound] | 0.04 | 0.07 | 0.05 | 0.1 | 0.05 | 0.03 |  |  | 
N=C(N)c1ccc(OCCCCCOc2ccc(C(=N)N)cc2)cc1 [Pentamidine, pentamidine, reference compound] |  |  |  |  |  |  |  |  | 2940
